What all share (type): in vivo
Test [1] deals with Echinochloa crus-galli (ECHCG). Description: Glasshouse assay for herbicidal activity, pre-/post-emergence (percentage phytotoxicity). To be noted: Echinochloa crus-galli, Rate 250 g/ha, 100%=total damage, 0%=no damage. In outline:
(§1)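 Visual score (0–100% damage) at 15DAA post-em / 20DAA pre-em. Pots, std soil; treated 1 d (pre) or ~12 d (post) after sowing. 24/18 °C warm spp., 20/16 °C cool spp., 16 h light, 65% RH.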

The test system of test [2] is Alopecurus myosuroides (ALOMY). Described as above. Particulars: Alopecurus myosuroides, Rate 250 g/ha, 100%=total damage, 0%=no damage. The method, boiled down:
as §1

For test [3], the system named is Lolium perenne (LOLPE). The description is as above. To be noted: Lolium perenne, Rate 250 g/ha, 100%=total damage, 0%=no damage. The method, boiled down: as §1
Test [4] has as its system Avena fatua (AVEFA). Described as above. To be noted: Avena fatua, Rate 250 g/ha, 100%=total damage, 0%=no damage. The method, boiled down: as §1
The test system of test [5] is wheat. Description: Post-emergence herbicidal activity against cereal crops (wheat) +/- safener, crop selectivity. To be noted: 100%=total damage to plant, 0%=no damage; for Post-emergence herbicidal activity against wheat (percentage phytotoxicity), +CQC: 250 g/ha, plus safener cloquintocet-mexyl (CQC) applied at 50 g/ha; for percent phytotoxicity (crop damage) to wheat at 250 g/ha: Triticum aestivum, 360 h, without safener, read-out: Post-emergence herbicidal activity against wheat (percentage phytotoxicity), Wheat - CQC. The method, boiled down:
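Test plants raised in pots in a glasshouse (24/18 °C warm or 20/16 °C cool species day/night, 16 h light, 65% humidity) and treated post-emergence about 12 days after sowing. Visual percentage phytotoxicity scored 15 days after application (0% = no damage, 100% = total damage).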

Setting [6] is: post-emergence, 360 h, post-emergence, visual assessment 15 DAA, read-out: Post-emergence herbicidal activity (percentage phytotoxicity), ECHCG POST.
[7] abbreviates: pre-emergence, 480 h, pre-emergence, visual assessment 20 DAA, read-out: Pre-emergence herbicidal activity (percentage phytotoxicity), ECHCG PRE.
Setting [8] is: 360 h, post-emergence, visual assessment 15 DAA, read-out: Post-emergence herbicidal activity (percentage phytotoxicity), ALOMY POST.
The mark [9] stands for this setting: 480 h, pre-emergence, visual assessment 20 DAA, read-out: Pre-emergence herbicidal activity (percentage phytotoxicity), ALOMY PRE.
The mark [10] stands for this setting: post-emergence, 360 h, post-emergence, visual assessment 15 DAA, read-out: Post-emergence herbicidal activity (percentage phytotoxicity), LOLPE POST.
The mark [11] stands for this setting: pre-emergence, 480 h, pre-emergence, visual assessment 20 DAA, read-out: Pre-emergence herbicidal activity (percentage phytotoxicity), LOLPE PRE.
[12] abbreviates: post-emergence, 360 h, post-emergence, visual assessment 15 DAA, read-out: Post-emergence herbicidal activity (percentage phytotoxicity), AVEFA POST.
The mark [13] stands for this setting: pre-emergence, 480 h, pre-emergence, visual assessment 20 DAA, read-out: Pre-emergence herbicidal activity (percentage phytotoxicity), AVEFA PRE.

Where two headings read alike, the source gives them in different places.

As for `Cc1cc(C)c(C2C(=O)CC(CCNS(=O)(=O)c3ccccc3C)C2=O)c(C)c1` (centres unmarked) [Compound A87], the pest or weed control at 250 g/ha in test [1] (setting [6]) amounted to 0%; in test [1] (setting [7]), 30%; in test [2] (setting [8]), 0%; in test [2] (setting [9]), 0%; in test [3] (setting [10]) it was 0%; in test [3] (setting [11]), 70%. The pest or weed control at 250 g/ha in test [4] (setting [12]) was 50%; in test [4] (setting [13]), 0%. Also, the “Post-emergence herbicidal activity against wheat (percentage phytotoxicity), +CQC” value in test [5] amounted to 0%. The percent phytotoxicity (crop damage) to wheat at 250 g/ha in test [5] turned out to be 20%.

On to `Cc1cc(-n2cc(Cl)cn2)cc(C)c1C1C(=O)CC(CCNS(=O)(=O)c2ccc(Cl)cc2)C1=O` (centres unmarked) [Compound A37], for which the pest or weed control at 250 g/ha in test [1] (setting [6]) was 30%; in test [1] (setting [7]), 0%; in test [2] (setting [8]), 0%; in test [2] (setting [9]), 0%; in test [3] (setting [10]) it was 0%; in test [3] (setting [11]), 0%. The pest or weed control at 250 g/ha in test [4] (setting [12]) and in test [4] (setting [13]) was 0% in each case. Also, the “Post-emergence herbicidal activity against wheat (percentage phytotoxicity), +CQC” value in test [5] amounted to 10%. The percent phytotoxicity (crop damage) to wheat at 250 g/ha in test [5] is 20%.

Regarding `Cc1cc(C)c(C2C(=O)CC(CCNC(=O)NC(=O)c3c(Cl)cccc3Cl)C2=O)c(C)c1` (centres unmarked) [Compound A52], the pest or weed control at 250 g/ha in test [1] (setting [6]) was 90%; in test [1] (setting [7]), 100%; in test [2] (setting [8]), 90%; in test [2] (setting [9]), 80%; in test [3] (setting [10]), 90%; in test [3] (setting [11]), 80%. The pest or weed control at 250 g/ha in test [4] (setting [12]) came out at 80%; in test [4] (setting [13]), 70%. The “Post-emergence herbicidal activity against wheat (percentage phytotoxicity), +CQC” value in test [5] is given as 30%. In addition, in test [5], the percent phytotoxicity (crop damage) to wheat at 250 g/ha was found to be 80%.

With `Cc1cc(C)c(C2C(=O)CC(CCNS(=O)(=O)c3ccccc3F)C2=O)c(C)c1` (centres unmarked) [Compound A76], the pest or weed control at 250 g/ha in test [1] (setting [6]) is 40%; in test [1] (setting [7]), 40%; in test [2] (setting [8]), 20%; in test [2] (setting [9]), 30%; in test [3] (setting [10]) it was 60%; in test [3] (setting [11]), 70%. In addition, the pest or weed control at 250 g/ha in test [4] (setting [12]) was 20%; in test [4] (setting [13]) it was 0%. The “Post-emergence herbicidal activity against wheat (percentage phytotoxicity), +CQC” value in test [5] came out at 0%. The percent phytotoxicity (crop damage) to wheat at 250 g/ha in test [5] was 0%.

For `Cc1cc(C)c(C2C(=O)CC(CCNS(=O)(=O)c3ccccc3Cl)C2=O)c(C)c1` (centres unmarked) [Compound A80], the pest or weed control at 250 g/ha was 0% in test [1] (setting [6]); 40% in test [1] (setting [7]); 10% in test [2] (setting [8]); 10% in test [2] (setting [9]); 60% in test [3] (setting [10]); 60% in test [3] (setting [11]). Besides, the pest or weed control at 250 g/ha in test [4] (setting [12]) and in test [4] (setting [13]) was 0% throughout. Besides, the “Post-emergence herbicidal activity against wheat (percentage phytotoxicity), +CQC” value in test [5] is on record as 0%. For the same compound, the percent phytotoxicity (crop damage) to wheat at 250 g/ha in test [5] is 0%.

For `Cc1cc(C)c(C2C(=O)CC(CCNC(=O)NC(=O)c3ccc(C(F)(F)F)cc3F)C2=O)c(C)c1` (centres unmarked) [Compound A70], the pest or weed control at 250 g/ha in test [1] (setting [6]) was determined as 90%; in test [1] (setting [7]), 100%; in test [2] (setting [8]) it was 20%; in test [2] (setting [9]) it was 50%; in test [3] (setting [10]) it was 100%; in test [3] (setting [11]), 60%. Moreover, the pest or weed control at 250 g/ha in test [4] (setting [12]) was 90%; in test [4] (setting [13]), 40%. The “Post-emergence herbicidal activity against wheat (percentage phytotoxicity), +CQC” value in test [5] turned out to be 80%. The percent phytotoxicity (crop damage) to wheat at 250 g/ha in test [5] came out at 80%.

Take `Cc1cc(-c2ncc(Cl)cc2F)cc(C)c1C1C(=O)CC(CCNC(=O)Nc2ccccn2)C1=O` (centres unmarked) [Compound A19]: the pest or weed control at 250 g/ha in test [1] (setting [6]) came out at 100%; in test [1] (setting [7]), 80%; in test [2] (setting [8]) it was 90%; in test [2] (setting [9]), 70%; in test [3] (setting [10]) it was 100%; in test [3] (setting [11]), 80%. Besides, the pest or weed control at 250 g/ha was 100% in test [4] (setting [12]) and 90% in test [4] (setting [13]). In test [5], the “Post-emergence herbicidal activity against wheat (percentage phytotoxicity), +CQC” value turned out to be 80%. In addition, the percent phytotoxicity (crop damage) to wheat at 250 g/ha in test [5] was 80%.

For `Cc1cc(C)c(C2C(=O)CC(CCNC(=S)Nc3ccc(F)cc3)C2=O)c(C)c1` (centres unmarked) [Compound A89], the pest or weed control at 250 g/ha in test [1] (setting [6]) was determined as 0%; in test [1] (setting [7]), 30%; in test [2] (setting [8]), 0%; in test [2] (setting [9]), 0%; in test [3] (setting [10]) it was 0%; in test [3] (setting [11]), 40%. Moreover, the pest or weed control at 250 g/ha stood at 40% in test [4] (setting [12]) and 0% in test [4] (setting [13]). Moreover, the “Post-emergence herbicidal activity against wheat (percentage phytotoxicity), +CQC” value in test [5] is recorded as 0%. In addition, the percent phytotoxicity (crop damage) to wheat at 250 g/ha in test [5] was 10%.

Regarding `Cc1cc(C)c(C2C(=O)CC(CCNS(=O)(=O)C(C)C)C2=O)c(C)c1` (centres unmarked) [Compound A77], the pest or weed control at 250 g/ha was 70% in test [1] (setting [6]); 70% in test [1] (setting [7]); 80% in test [2] (setting [8]); 100% in test [2] (setting [9]); 80% in test [3] (setting [10]); 80% in test [3] (setting [11]). Also, the pest or weed control at 250 g/ha was determined as 80% in test [4] (setting [12]) and 70% in test [4] (setting [13]). Further, the “Post-emergence herbicidal activity against wheat (percentage phytotoxicity), +CQC” value in test [5] is reported as 10%. Further, the percent phytotoxicity (crop damage) to wheat at 250 g/ha in test [5] was determined as 80%.

Take `Cc1cc(C)c(C2C(=O)CC(CCNC(=O)NC(=O)c3ccccc3F)C2=O)c(C)c1` (centres unmarked) [Compound A54]: the pest or weed control at 250 g/ha in test [1] (setting [6]) worked out at 100%; in test [1] (setting [7]) it was 80%; in test [2] (setting [8]) it was 100%; in test [2] (setting [9]), 60%; in test [3] (setting [10]), 100%; in test [3] (setting [11]) it was 80%. Besides, the pest or weed control at 250 g/ha is 100% in test [4] (setting [12]) and 60% in test [4] (setting [13]). The “Post-emergence herbicidal activity against wheat (percentage phytotoxicity), +CQC” value in test [5] stood at 80%. For the same compound, the percent phytotoxicity (crop damage) to wheat at 250 g/ha in test [5] stood at 90%.

In the case of `CON=C(C)C(=O)NCCC1CC(=O)C(c2c(C)cc(-n3cc(Cl)cn3)cc2C)C1=O` (centres unmarked) [Compound A38], the pest or weed control at 250 g/ha is 100% in test [1] (setting [6]); 100% in test [1] (setting [7]); 70% in test [2] (setting [8]); 70% in test [2] (setting [9]); 80% in test [3] (setting [10]); 70% in test [3] (setting [11]). In addition, the pest or weed control at 250 g/ha in test [4] (setting [12]) turned out to be 80%; in test [4] (setting [13]), 70%. In test [5], the “Post-emergence herbicidal activity against wheat (percentage phytotoxicity), +CQC” value came out at 30%. In addition, the percent phytotoxicity (crop damage) to wheat at 250 g/ha in test [5] was determined as 70%.
